Results from US9856511B2, “Protease deubiquitinating inhibitor screening” (priority 2011, dated 2018).

How the values were obtained:
[1] = system: cellular DUB activity (HCT-116 cells); experiment: Cellular DUB activity, Ub-AMC cleavage in lysates of treated cells; format: cell-based; settings: b-AP15 treated cells
From the text: b-AP15 comprises an α-β dienone entity with two sterically accessible β carbons. A structurally similar pharmacophore has been earlier described to be comprised by a class of ubiquitin isopeptidase inhibitors (21). […] In the opinion of the present inventors the similarities in pharmacophore structure and the data showing that b-AP15 inhibits proteasome activity independent of the 20S CP indicate that b-AP15 represents a novel class of proteasome inhibitors that block the deubiquitinating activity of the 19S RP.
HTC-116 cells were treated for 3 h with b-AP15 (1 μM) (FIG. 10). Lysates treated with 10 mM N-ethylmaleimide (NEM) were included as a control for total DUB inhibition. DUB activity was determined from cell lysates by measuring cleavage of the fluorogenic substrate ubiquitin-7-amido-4-methylcoumarin (Ub-AMC).

19S RP = biological target: T1, 19S RP (Homo sapiens, UniProt P54578+Q9Y5K5); experiment: Ub-GFP cleavage assay with 19S RP; format: biochemical
T1 construct: purchased Boston Biochem E-366
Experimental: To this end the ability of b-AP15 to inhibit cleavage of recombinant ubiquitin-GFP was assessed. Recombinant ubiquitin-GFP is a substrate for 19S RP DUB activity (22). […] The type of ubiquitin bonds present in the polyubiquitin chain determines the fate of an ubiquitin-modified substrate. K48 linked polyubiquitin chains generally targets conjoined proteins for degradation (23), whereas K63 linked chains are involved in non-proteolytic roles including DNA repair (24) and mitotic chromosome segregation (25). […] The inhibition of ubiquitin chain disassembly observed could account for the accumulation of high molecular weight ubiquitin conjugates in b-AP15 treated cells.
The recombinant Ub-GFP plasmid pet19b Ub-M-GFP was generated as described (42). In brief recombinant Ub-GFP was purified from BL21 E. coli cells by His affinity purification. For cleavage assays 19S RP (25 nM) was incubated with 10 mM NEM, 250 μM TPEN or 50 μM b-AP15 for 10 min followed by the addition of recombinant Ub-GFP (200 nM). […] The level of Ub-GFP cleavage or ubiquitin disassembly was determined by immunoblotting with anti ubiquitin antibodies. […] The cleavage of ubiquitinated Hdm2 substrate and ubiquitinated Hdm2 was determined by immunoblotting with anti-Hdm2 antibodies. […]

[2] = system: isogenic clones of HCT116 colon cancer cells; experiment: Apoptosis in isogenic HCT116 clones, caspase cleaved cytokeratin-18 ELISA; format: cell-based
Experimental: The increase in sub G1 DNA content is associated with (i) activation of the apoptosis mediator caspase-3 and (ii) with cleavage of the caspase substrates poly-ADP ribose polymerase (PARP) and cytokeratin-18. […] Apoptosis induction by bortezomib is dependent on p53 and inhibited by overexpression of the Bcl-2 protein (16,17).
For determination of apoptosis parental HCT-116 p53+/+ cells were treated with the increasing doses of bortezomib or b-AP15 for 24 h. […] HCT-116 cells were seeded in 96-well microtiter plates at 10,000 cells per well and incubated overnight. Cells were treated with indicated drug for 24 h. At the end of the incubation period, NP40 was added to the tissue culture medium to 0.1% and 25 μl of the content of each well was assayed using the M30-Apoptosense® ELISA as previously described (43). Cell viability was determined by measuring acid phosphatase activity or using the FMCA method (44). For the acid phosphatase activity cells were seeded at 5000 cells per well in 96-well culture plates and incubated for 12 h at 37° C. Compounds were added to the cells in growth media and incubated for 72 h at 37° C. Cells were washed with 200 μl warm PBS. […] Absorbance was measured at 405 nm.
b-AP15 inhibits degradation of ubiquitin-tagged YFP in a proteasome reporter cell line (FIG. 1a). Levels of ^UbG76V-YFP accumulation were determined by flow cytometry and immunoblotting; immunoblot of ubiquitin conjugation in HCT-116 cells treated with b-AP15 (1 μM) or bortezomib (100 nM) (FIG. 1b). […] Immunoblot of ODC-1 levels in HCT-116 cells following treatment with bortezomib ([…] or b-Ap15 (1 μM) (FIG. 1d); values represent quantified optical density units of ODC-1 normalized to β-actin. Cell cycle profiles of b-AP15 treated HCT-116 cells (FIG. 1e); cells were analyzed by propidium iodide staining and flow cytometry. Levels of caspase activity in isogenic HCT-116 cells as determined by ELISA for caspase cleaved cytokeratin-18 (CK18-Asp398) following treatment with bortezomib (100 nM) or b-AP15 (1 μM) (**′P=0.01, ***′P=0.001) (FIG. 1f). […]

C=CC(=O)N1C/C(=C\c2ccc([N+](=O)[O-])cc2)C(=O)/C(=C/c2ccc([N+](=O)[O-])cc2)C1 [b-AP15]
cellular DUB activity (Ub-AMC cleavage) [1]: no reduction in Ub-AMC cleavage
cleavage of Ub-GFP by 19S RP (19S RP): effectively inhibited
apoptosis: effect of genetic disruption of BAX or PUMA [2]: does not affect b-AP15 sensitivity
caspase cleavage of cytokeratin-18: effect of p53 disruption or Bcl-2 overexpression [2]: not affected by genetic disruption of p53 or overexpression of Bcl-2
